Results published in US9949979B2, “Use of inhibitors of the activity or function of PI3K” (NOVARTIS AG, priority 2011, dated 2018).
pIC50: −log10 of the molar value.

Legend:
TLR9 [1] = experiment: TLR9-induced IL-6 in murine splenocytes (CpG1826, ELISA); assay type: cell-based, C57BL/6 mice; conditions: Mus musculus, Splenocyte; read-out: TLR9-ligand induced IL-6 in murine splenocytes IC50
Method: 2.2 Determination of TLR9-Induced IL-6 in Murine Splenocytes
Spleens were dissected from C57BL/6 mice immediately following euthanasia. Excess fat was trimmed from the spleens prior to mashing the spleen through a […] cell strainer using a plunger from a 5 ml syringe. A single cell suspension was prepared and the volume was adjusted to 15 ml in a 50 ml Falcon tube using cold PBS. Cells were centrifuged at 1500 rpm for 5 minutes at 4° C. degrees prior to removal of supernatant and re-suspension in 5 ml of red blood cell lysis buffer per spleen and incubation for 5 minutes at room temperature. Ice cold PBS (30 ml) was added to the cells prior to centrifugation at 1500 rpm for 5 minutes at 4° C. The supernatant was removed and the cells were washed twice with 40 ml of murine splenocyte culture media (MSCM). […] Cells were re-suspended in 10-20 ml of MSCM and counted using a Countess cell counter. […]
After overnight culture, cells were transferred to 96-well V-bottomed plates and centrifuged at 2000 rpm for 5 minutes at room temperature. Subsequently 150 μl of each culture supernatant was transferred to 96-well flat-bottomed plates and […] were measured using commercially available mouse IL-6 sandwich ELISA kit (R&D systems). […] IL-6 levels were measured using a SpectraMax 190 Plate Reader (450 nm) and analyzed using SoftMax Pro and GraphPad Prism software.

TLR9 [2] = experiment: TLR9-induced IFNalpha in isolated human pDCs (CpG2216, AlphaLISA); assay type: cell-based; conditions: read-out: TLR9-ligand induced IFNα in human pDCs IC50
Method: 2.4 Determination of TLR9-Induced IFNalpha in Human Peripheral Blood Mononuclear Cells (PBMCs) and Isolated Plasmacytoid Dendritic Cells (pDCs)
Human PBMCs were prepared using Buffy Coats as source material from healthy donations (approx. 50 ml obtained from Blutspendezentrum SRK Basel) and processed as indicated above. […]
Compounds were pre-diluted in 100% v/v DMSO (#41640-100 mL; Sigma-Aldrich), followed by transfer in Media (to achieve a final DMSO concentration of 0.25%). […] Plates were briefly centrifuged (200×g for 2 min at 22° C.) and supernatant samples (30 μl) removed for quantification of IFNα levels.
For quantification of IFNalpha the human interferon AlphaLISA Kit (#AL264F) from PerkinElmer was used. […] After incubation, the plates were read with an EnVision™ multiplate reader equipped with the ALPHA option using the instrument's own “AlphaScreen standard settings” (e.g. total measurement time: 550 ms, Laser 680 nm excitation time: 180 ms, mirror: D640 as, emission filter: M570w, center wavelength 570 nm, bandwidth 100 nm, transmittance 75%). Data were collected for analysis and quantification of IFNα levels.
Data were analysed using Excel XL fit 4.0 (Microsoft) with XLfit add-in (IDBS; version 4.3.2). Specific IFNα concentrations were determined following extrapolation to standard curves using human IFNα B (2b). […]

pIC50 (TLR9 [1]): 7.02
pIC50 (TLR9 [2]): 7.48
Structure (SMILES): CCC(=O)N1CC[C@H](Nc2ncnc3c2CN(c2cnc(OC)c(C(F)(F)F)c2)CC3)C1 [Example 67, 1-{(S)-3-[6-(6-Methoxy-5-trifluoromethyl-pyridin-3-yl)-5,6,7,8-tetrahydro-pyrido[4,3-d]pyrimidin-4-ylamino]-pyrrolidin-1-yl}-propan-1-one]
